Where two headings read alike, the source gives them in different places. Residues, ends and D or L forms follow the SMILES beside them.
Key:
A. baumannii RUH875 [1] = assay type: cell-based; conditions: for LC99.9 A. baumannii RUH875 50% Plasma 18 h: RUH875, 18 h
Method: (§1) The bacterial strains used in this study included S. aureus JAR060131 [54] and the MDR ESKAPE pathogens Enterococcus faecium LUH15122, S. aureus LUH14616, Klebsiella pneumoniae LUH15104, A. baumannii RUH875 [55], Pseudomonas aeruginosa LUH15103, Enterobacter cloacae LUH15114, and the colistin-resistant Escherichia coli LUH15117. Before each experiment, bacteria from frozen stocks were cultured at 37 °C for 18–24 h on sheep blood agar plates (BioMérieux, Marcy-l’Étoile, France). All strains were then cultured from colonies either in tryptic soy broth (TSB; Oxoid, Basingstoke, UK) for A. baumannii, S. aureus, and E. faecium, or in brain heart infusion broth (BHI; Oxoid) for K. pneumoniae, P. aeruginosa, E. cloacae, and E. coli at 37 °C with shaking at 120 rpm for 18–24 h. Subsequently, bacteria were cultured to mid-logarithmic phase in the media described above at 37 °C with shaking at 120 rpm for 3 h. Bacteria were then washed twice with PBS and diluted to the required inoculum suspension concentration in Roswell Park Memorial Institute (RPMI)-1640 medium containing 20 mM HEPES and L-glutamine but without sodium bicarbonate (Sigma-Aldrich; hereafter referred to as RPMI), based on optical density at 620 nm. RPMI was selected because it supports bacterial growth without impairing AMP activity.
(§2) Bactericidal activity was assessed as described by de Breij et al.. Briefly, mid-logarithmic phase bacterial cultures were diluted to a final concentration of 1 × 10^7 colony-forming units (CFU)/mL in RPMI. Then, 10 µL was added to a final volume of 100 µL in RPMI (final concentration: 1 × 10^6 CFU/mL). Cultures were exposed to peptides either in RPMI or RPMI supplemented with 50% (v/v) human plasma (hereafter referred to as 50% plasma), obtained from four healthy volunteers after informed consent, frozen after collection, and pooled (Sanquin, Amsterdam, The Netherlands). Assays were performed in duplicate using round-bottom polypropylene microtiter plates (Costar, Arlington, VA, USA) and repeated three times. In the initial screening phase (Table 1, Table 2 and Table S1), peptide solutions of 1, 10, and 100 μM (final concentration) were tested against A. baumannii RUH875 and S. aureus JAR060131 in RPMI and in 50% plasma. After this selection process, two lead candidates, their RI variants, and reference peptides were tested with a final concentration range of 0.12 to 120 µM (two-fold dilutions) in RPMI and in 50% plasma (Table 3). The peptides were also tested against ESKAPE pathogens, with Synthetic Antimicrobial and Antibiofilm Peptide (SAAP)-148 as a reference peptide (Table 4).RPMI or 50% plasma served as no-treatment controls. After 2 and 18 h of incubation at 37 °C with shaking at 120 rpm in a humidified environment, the numbers of viable bacteria were quantified. Bactericidal activity was expressed as the lethal concentration 99.9% (LC99.9), defined as the lowest peptide concentration that killed ≥99.9% of bacteria within 2 h (LC99.9_2h) or 18 h (LC99.9_18h) compared to the initial inoculum.

E. cloacae LUH15114 = assay type: cell-based; conditions: for LC99.9 E. cloacae LUH15114 50% Plasma 2 h / LC99.9 E. cloacae LUH15114 RPMI 2 h: LUH15114, 2 h
Method: as §1, §2

E. coli LUH15117 = assay type: cell-based; conditions: for LC99.9 E. coli LUH15117 RPMI 2 h: LUH15117, 2 h
Method: as §1, §2

E. faecium LUH15122 = assay type: cell-based; conditions: for LC99.9 E. faecium LUH15122 50% Plasma 18 h / LC99.9 E. faecium LUH15122 RPMI 18 h: LUH15122, 18 h
Method: as §1, §2

K. pneumoniae LUH15104 = assay type: cell-based; conditions: for LC99.9 K. pneumoniae LUH15104 50% Plasma 2 h / LC99.9 K. pneumoniae LUH15104 RPMI 2 h: LUH15104, 2 h; for LC99.9 K. pneumoniae LUH15104 50% Plasma 18 h / LC99.9 K. pneumoniae LUH15104 RPMI 18 h: LUH15104, 18 h
Method: as §1, §2

P. aeruginosa LUH15103 = assay type: cell-based; conditions: for LC99.9 P. aeruginosa LUH15103 50% Plasma 2 h / LC99.9 P. aeruginosa LUH15103 RPMI 2 h: LUH15103, 2 h; for LC99.9 P. aeruginosa LUH15103 50% Plasma 18 h / LC99.9 P. aeruginosa LUH15103 RPMI 18 h: LUH15103, 18 h
Method: as §1, §2

S. aureus JAR060131 [2] = assay type: cell-based; conditions: for LC99.9 S. aureus JAR060131 50% Plasma 18 h: JAR060131, 18 h
Method: as §1, §2

S. aureus LUH14616 = assay type: cell-based
Method: as §1, §2

MDR ESKAPE pathogens = experiment: Bactericidal activity (LC99.9), statements for the whole panel; assay type: cell-based; conditions: 50% plasma; 2 h; range over the three species
Method: as §1, §2

A. baumannii RUH875 [3] = test system: A. baumannii RUH875
Method: (§3) Bacteria incubated in PBS alone served as no-treatment controls. At five time points (1, 2, 5, 30, and 120 min), duplicate 50 µL samples were taken and immediately mixed with 50 µL of 0.05% (v/v) sodium polyanethol sulfonate (SPS; Sigma-Aldrich) in PBS to neutralize residual peptide activity. The number of viable bacteria was quantified by plating 10 µL aliquots of serial 10-fold dilutions onto sheep blood agar plates. Colonies were counted after 24 h of incubation at 37 °C.

S. aureus JAR060131 [4] = test system: S. aureus JAR060131
Method: as §3

S. aureus JAR060131 [5] = experiment: SYTOX Green membrane permeabilization assay; assay type: cell-based, Staphylococcus aureus
Method: Control samples were exposed to RPMI only. As a positive control, heat-killed bacteria were incubated at 95 °C for 10 min to induce maximum membrane permeabilization. Fluorescence (excitation: 485 nm, emission: 520 nm) was monitored every minute for 90 min at 37 °C using a […] plate reader (Ortenberg, Germany), with peptides and positive controls added after the third cycle. Background fluorescence (SYTOX Green alone) was subtracted from all values. All assays were performed in triplicate and repeated twice independently.

[6] = 50% plasma, 2 h, median of three independent experiments

What does the source list for Ac-KRWVKIAKKWWRLL-NH2 [GDST-038]?
LC99.9 A. baumannii RUH875 50% Plasma 2 h (A. baumannii RUH875 [1]; RUH875, 2 h): 0.94 µM; LC99.9 A. baumannii RUH875 50% Plasma 18 h (A. baumannii RUH875 [1]): 0.47 µM; LC99.9 E. cloacae LUH15114 50% Plasma 18 h (E. cloacae LUH15114; 50% plasma, 18 h, median of three independent experiments): 1.88 µM; LC99.9 E. cloacae LUH15114 50% Plasma 2 h (E. cloacae LUH15114): 60 µM; LC99.9 E. cloacae LUH15114 RPMI 2 h (E. cloacae LUH15114): 3.75 µM; LC99.9 E. cloacae LUH15114 RPMI 18 h (E. cloacae LUH15114; RPMI, 18 h, median of three independent experiments): 1.88 µM; LC99.9 E. coli LUH15117 RPMI 2 h (E. coli LUH15117): 0.94 µM; LC99.9 E. coli LUH15117 RPMI 18 h (E. coli LUH15117; colistin-resistant strain, RPMI, 18 h, median of three independent experiments): 1.88 µM; LC99.9 E. faecium LUH15122 50% Plasma 2 h (E. faecium LUH15122; [6]): 1.88 µM; LC99.9 E. faecium LUH15122 50% Plasma 18 h (E. faecium LUH15122): 7.5 µM; LC99.9 E. faecium LUH15122 RPMI 18 h (E. faecium LUH15122): 0.94 µM; LC99.9 E. faecium LUH15122 RPMI 2 h (E. faecium LUH15122; RPMI, 2 h, median of three independent experiments): 1.88 µM; LC99.9 K. pneumoniae LUH15104 50% Plasma 2 h (K. pneumoniae LUH15104): 7.5 µM; LC99.9 K. pneumoniae LUH15104 RPMI 2 h (K. pneumoniae LUH15104): 3.75 µM; LC99.9 K. pneumoniae LUH15104 50% Plasma 18 h (K. pneumoniae LUH15104): 3.75 µM; LC99.9 K. pneumoniae LUH15104 RPMI 18 h (K. pneumoniae LUH15104): 3.75 µM; LC99.9 P. aeruginosa LUH15103 50% Plasma 2 h (P. aeruginosa LUH15103): 15 µM; LC99.9 P. aeruginosa LUH15103 RPMI 2 h (P. aeruginosa LUH15103): 7.5 µM; LC99.9 P. aeruginosa LUH15103 50% Plasma 18 h (P. aeruginosa LUH15103): 15 µM; LC99.9 P. aeruginosa LUH15103 RPMI 18 h (P. aeruginosa LUH15103): 3.75 µM; LC99.9 S. aureus JAR060131 50% Plasma 2 h (S. aureus JAR060131 [2]; [6]): 1.88 µM; LC99.9 S. aureus JAR060131 RPMI 2 h (S. aureus JAR060131 [2]; JAR060131, 2 h): 0.94 µM; LC99.9 S. aureus JAR060131 50% Plasma 18 h (S. aureus JAR060131 [2]): 0.94 µM; LC99.9 S. aureus LUH14616 50% Plasma 2 h (S. aureus LUH14616; LUH14616, 2 h): 7.5 µM; LC99.9 S. aureus LUH14616 RPMI 2 h (S. aureus LUH14616; LUH14616, 2 h): 0.94 µM; LC99.9 S. aureus LUH14616 50% Plasma 18 h (S. aureus LUH14616; LUH14616, 18 h): 0.94 µM; LC99.9 S. aureus LUH14616 RPMI 18 h (S. aureus LUH14616; LUH14616, 18 h): 0.94 µM; Concentrations required for E. cloacae, S. aureus and P. aeruginosa in 50% plasma within 2 h (MDR ESKAPE pathogens): 30 to 60 µM; Time to complete killing of A. baumannii (A. baumannii RUH875 [3]; 1.88 μM): ≤ 5 min; Killing of A. baumannii within 5 min (A. baumannii RUH875 [3]; 1.88 μM, PBS, 5 min): > 90%; Time to complete killing of S. aureus (S. aureus JAR060131 [4]; 1.88 μM): ≤ 5 min; Killing of S. aureus within 5 min (S. aureus JAR060131 [4]; 1.88 μM, PBS, 5 min): > 90%; Time to rise in SYTOX fluorescence intensity after peptide addition, S. aureus (S. aureus JAR060131 [5]; at both sublethal and lethal concentrations): ≤ 1 min

What does the source list for `CC[C@@H](C)[C@@H](NC(=O)[C@@H](C)NC(=O)[C@@H](CCCCN)NC(=O)[C@@H](CCCCN)NC(=O)[C@@H](Cc1c[nH]c2ccccc12)NC(=O)[C@@H](Cc1c[nH]c2ccccc12)NC(=O)[C@@H](CCCNC(=N)N)NC(=O)[C@@H](CC(C)C)NC(=O)[C@@H](CC(C)C)NC(C)=O)C(=O)N[C@H](CCCCN)C(=O)N[C@@H](C(=O)N[C@H](Cc1c[nH]c2ccccc12)C(=O)N[C@H](CCCNC(=N)N)C(=O)N[C@H](CCCCN)C(N)=O)C(C)C` [GDST-038-RI] (HELM PEPTIDE1{[ac].[dL].[dL].[dR].[dW].[dW].[dK].[dK].[dA].[dI].[dK].[dV].[dW].[dR].[dK].[am]}$$$$V2.0; N-terminus and C-terminus assumed)?
LC99.9 A. baumannii RUH875 50% Plasma 18 h (A. baumannii RUH875 [1]): 0.94 µM; LC99.9 E. cloacae LUH15114 50% Plasma 2 h (E. cloacae LUH15114): 60 µM; LC99.9 E. cloacae LUH15114 RPMI 2 h (E. cloacae LUH15114): 30 µM; LC99.9 E. coli LUH15117 RPMI 2 h (E. coli LUH15117): 3.75 µM; LC99.9 E. coli LUH15117 RPMI 18 h (E. coli LUH15117; LUH15117, 18 h): 0.94 µM; LC99.9 E. faecium LUH15122 RPMI 2 h (E. faecium LUH15122; LUH15122, 2 h): 3.75 µM; LC99.9 E. faecium LUH15122 50% Plasma 18 h (E. faecium LUH15122): 3.75 µM; LC99.9 E. faecium LUH15122 RPMI 18 h (E. faecium LUH15122): 0.94 µM; LC99.9 K. pneumoniae LUH15104 50% Plasma 2 h (K. pneumoniae LUH15104): 15 µM; LC99.9 K. pneumoniae LUH15104 RPMI 2 h (K. pneumoniae LUH15104): 15 µM; LC99.9 K. pneumoniae LUH15104 50% Plasma 18 h (K. pneumoniae LUH15104): 3.75 µM; LC99.9 K. pneumoniae LUH15104 RPMI 18 h (K. pneumoniae LUH15104): 7.5 µM; LC99.9 P. aeruginosa LUH15103 50% Plasma 2 h (P. aeruginosa LUH15103): 30 µM; LC99.9 P. aeruginosa LUH15103 RPMI 2 h (P. aeruginosa LUH15103): 15 µM; LC99.9 P. aeruginosa LUH15103 50% Plasma 18 h (P. aeruginosa LUH15103): 15 µM; LC99.9 P. aeruginosa LUH15103 RPMI 18 h (P. aeruginosa LUH15103): 7.5 µM; LC99.9 S. aureus JAR060131 50% Plasma 2 h (S. aureus JAR060131 [2]; JAR060131, 2 h): 3.75 µM; LC99.9 S. aureus JAR060131 50% Plasma 18 h (S. aureus JAR060131 [2]): 3.75 µM; LC99.9 S. aureus LUH14616 50% Plasma 2 h (S. aureus LUH14616; LUH14616, 2 h): 30 µM; LC99.9 S. aureus LUH14616 RPMI 18 h (S. aureus LUH14616; LUH14616, 18 h): 0.47 µM; Concentrations required for E. cloacae, S. aureus and P. aeruginosa in 50% plasma within 2 h (MDR ESKAPE pathogens): 30 to 60 µM; Time to complete killing of A. baumannii (A. baumannii RUH875 [3]; 3.75 μM): 120 min; Time to complete killing of S. aureus (S. aureus JAR060131 [4]; 3.75 μM): ≤ 2 min; Concentrations causing rapid rise in SYTOX fluorescence, S. aureus (S. aureus JAR060131 [5]; RPMI, 1 μM SYTOX Green, 90 min, 37 °C): 1.88 to 3.75 µM

From publication PMC12649225, “Machine Learning-Identified Potent Antimicrobial Peptides Against Multidrug-Resistant Bacteria and Skin Infections” (Antibiotics, 2025)
